Assay results from US5650444A, “Substituted biphenyl derivatives” (American Home Products Corporation, priority 1995, dated 1997).

System: PDE IV
Experiment: Test Procedure No. 2: functional inhibition of PDE IV (relaxation of guinea pig tracheal rings precontracted with carbachol)
Format: cell-based, guinea pig (male Hartley)
Conditions: in presence of CI-930 (10 μM)
Experimental: The following standard test is also employed to assess the abilities of compounds to inhibit PDE IV functionally. […]
Tracheal relaxation resulting from the inhibition of PDE-IV or PDE-III was assessed by a method similar to that employed by Harris et al. (1989). […] The functional inhibition of PDE-IV or PDE-III was determined by adding a test compound to the tissue bath in cumulatively increasing concentrations and monitoring the degree of relaxation induced in the continued presence of CI-930 or rolipram (respectively). […] Percent relaxations produced by each concentration of test compound were calculated as a percentage relaxation of tension maintained in the presence of the preincubating PDE inhibitor, relative to the final resting tension determined at the end of each experiment. […]

IC50: 120 nM
SMILES: COC(=O)c1cccc(-c2ccc(OC)c(OC3CCCC3)c2)c1 [Example 18, 3'-Cyclopentyloxy-4'-methoxy-biphenyl-3-carboxylic acid methyl ester]
